Reference: patent US4554284A, “7-(2-Aminoethyl)-1,3-benzthia- or oxa-zol-2(3H)-ones” (Smithkline Beckman Corporation, priority 1984, dated 1985)
pEC50: −log10 of the molar value. Like-named read-outs stand apart in the source and are kept apart here. Values belong to the molecule of their own block, whether it stands above or below them.

Molecular target: T1, D2-receptors (presynaptic dopaminergic receptors) (Oryctolagus cuniculus, UniProt G1T1Q0)
T1 construct: perfused rabbit ear artery protocol; from tissue; host or cells: rabbit ear artery (perfused, isolated)
T1 sequence (G1T1Q0 1-443): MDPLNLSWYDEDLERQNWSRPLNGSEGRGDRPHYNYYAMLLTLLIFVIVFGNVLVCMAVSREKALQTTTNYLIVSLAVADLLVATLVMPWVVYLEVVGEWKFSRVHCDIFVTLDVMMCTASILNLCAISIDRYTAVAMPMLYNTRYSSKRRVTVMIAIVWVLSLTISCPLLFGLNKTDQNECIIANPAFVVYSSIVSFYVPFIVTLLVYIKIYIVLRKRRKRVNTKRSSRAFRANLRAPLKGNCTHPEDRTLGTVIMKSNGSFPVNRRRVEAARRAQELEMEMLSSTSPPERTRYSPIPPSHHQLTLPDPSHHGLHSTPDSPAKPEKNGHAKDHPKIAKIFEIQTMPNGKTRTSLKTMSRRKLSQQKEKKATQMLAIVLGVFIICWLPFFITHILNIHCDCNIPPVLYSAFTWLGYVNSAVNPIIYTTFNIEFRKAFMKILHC
Assay: perfused rabbit ear artery protocol (D2-agonist activity)
Type: cell-based

[1] = perfused rabbit ear artery, D2-agonist activity, read-out: EC50

Compound: NCCc1ccc(O)c(O)c1 [D, dopamine, reference compound]
pEC50: 7.40

Compound: CCCN(CCC)CCc1ccc(O)c2[nH]c(=O)oc12 [C, 4-hydroxy-7-[2-(di-n-propylamino)ethyl]-1,3-benzoxazol-2(3H)-one]
pEC50 [1]: 8.10

Compound: CCCN(CCC)CCc1c(Cl)cc(O)c2nc(O)sc12 [B, 4-hydroxy-6-chloro-7-[2-(di-n-propylamino)ethyl]-1,3-benzthiazol-2(3H)-one]
pEC50 [1]: 7.30

Continued, values first:

pEC50 [1]: 6.70
Compound: CCCN(CCC)CCc1ccc(O)c2[nH]c(=O)ccc12 [E, 8-hydroxy-5-[2-(di-n-propylamino)ethyl]-carbostyril, reference compound]

times more potent than its oxa congener: ~40 times
times more potent than the corresponding indolone: 10 times
pEC50 [1]: 9.70
Compound: CCCN(CCC)CCc1ccc(O)c2[nH]c(=O)sc12 [Compound A, 4-hydroxy-7-[2-(di-n-propylamino)ethyl]-1,3-benzthiazol-2(3H)-one]
